Test [1] relates to NHBE (normal bronchial epithelial). As to the kind of experiment: Cytotoxicity assay (CellTiter-Glo, 6 days). Type of test: cell-based. The conditions noted are these: NHBE (bronchial epithelial) non-tumor; relative to untreated control at ≤1 μg/mL in a six day proliferation. Here is the method: Tumor cells were plated at 2000-5000 cells/well in 180 μL growth medium containing 10% FBS in 96-well plates, and cultured at 37° C. in a humidified incubator with 5% C02. The following day, titrations of antibodies or ADCs in 20 μL were added and cells were incubated for 6 days. Cell viability was determined using a CellTiter-Glo Luminescent Cell Viability Assay (Promega) according to the manufacturer's instructions. A non-binding, irrelevant negative control ADC conjugated to MMAE was also included in all assays to confirm that cell killing was antigen dependent.
Tumor cells were plated at 2000-5000 cells/well in 180 μL growth medium containing 10% FBS in 96-well plates, and cultured at 37° C. in a humidified incubator with 5% C02. The following day, titrations of ADCs in 20 μL were added and cells were incubated for 6 days. Cell viability was determined using a CellTiter-Glo Luminescent Cell Viability Assay (Promega) according to the manufacturer's instructions. A non-binding, irrelevant negative control ADC conjugated to MMAE was also included in all assays to confirm that cell killing was antigen-dependent.
(In general: In ATP-based viability assays light output follows the ATP content of the culture.)

Another test relates to CTG-0062 colorectal PDX. In words: Patient-derived xenograft, tumor growth delay. The format is in vivo, NSG mice. The conditions noted are these: PDX CTG-0062 (Colorectal); every seven days, six doses; median time to 1 cm^3 vs control. Here is the method:
(§1) Tumor fragments of 3 to 5 mm^3 at passage 3 (P3) were implanted subcutaneously in the right rear flank of NSG mice (The Jackson Laboratory) with a trochar. ABBV-399 and ABT-700 PBD were administered every seven days for a total of six doses. […] For all groups, tumor volumes were plotted only for the duration that allowed the full set of animal to remain on study. If animals had to be taken off study, the remaining animals were monitored for tumor growth until they reached defined end-points.
(In xenograft studies the graft and the host belong to different species.)

The next test relates to CTG-0084 colorectal PDX. In words: Patient-derived xenograft, tumor growth delay. Type of test: in vivo, NSG mice. Conditions: PDX CTG-0084 (Colorectal); every seven days, six doses; median time to 1 cm^3 vs control. Here is the method: as §1
The next test concerns CTG-0117 colorectal PDX. As to the kind of experiment: Patient-derived xenograft, tumor growth delay. The format is in vivo, NSG mice. Conditions: PDX CTG-0117 (Colorectal); every seven days, six doses; median time to 1 cm^3 vs control. Here is the method:
as §1

In a further test the test system is CTG-0159 NSCL PDX. In words: Patient-derived xenograft, tumor growth delay. The format is in vivo, NSG mice. The conditions noted are these: PDX CTG-0159 (NSCL); every seven days, six doses; median time to 1 cm^3 vs control. How it is done:
as §1

The next test concerns CTG-0162 NSCL PDX. As to the kind of experiment: Patient-derived xenograft, tumor growth delay. Type of test: in vivo, NSG mice. Conditions: PDX CTG-0162 (NSCL); every seven days, six doses; median time to 1 cm^3 vs control. How it is done: as §1
In the next test the test system is CTG-0164 NSCL PDX. As to the kind of experiment: Patient-derived xenograft, tumor growth delay. Conditions: PDX CTG-0164 (NSCL); every seven days, six doses; median time to 1 cm^3 vs control. The format is in vivo, NSG mice. Here is the method: as §1
For another test, the system named is CTG-0165 NSCL PDX. As to the kind of experiment: Patient-derived xenograft, tumor growth delay. The conditions noted are these: PDX CTG-0165 (NSCL); every seven days, six doses; median time to 1 cm^3 vs control. The format is in vivo, NSG mice. How it is done: as §1
Another test concerns CTG-0167 NSCL PDX. In words: Patient-derived xenograft, tumor growth delay. The format is in vivo, NSG mice. The conditions noted are these: PDX CTG-0167 (NSCL); every seven days, six doses; median time to 1 cm^3 vs control. Here is the method:
as §1

The next test deals with CTG-0170 NSCL PDX. As to the kind of experiment: Patient-derived xenograft, tumor growth delay. Type of test: in vivo, NSG mice. Conditions: PDX CTG-0170 (NSCL); every seven days, six doses; median time to 1 cm^3 vs control. Here is the method: as §1
The subject of a further test is CTG-0176 NSCL PDX. In words: Patient-derived xenograft, tumor growth delay. The format is in vivo, NSG mice. The conditions noted are these: PDX CTG-0176 (NSCL); every seven days, six doses; median time to 1 cm^3 vs control. How it is done: as §1
Another test relates to CTG-0178 NSCL PDX. In words: Patient-derived xenograft, tumor growth delay. Type of test: in vivo, NSG mice. Conditions: PDX CTG-0178 (NSCL); every seven days, six doses; median time to 1 cm^3 vs control. Here is the method:
as §1

The next test deals with CTG-0358 colorectal PDX. As to the kind of experiment: Patient-derived xenograft, tumor growth delay. Type of test: in vivo, NSG mice. Conditions: PDX CTG-0358 (Colorectal); every seven days, six doses; median time to 1 cm^3 vs control. How it is done: as §1
The test system of another test is CTG-0363 NSCL PDX. As to the kind of experiment: Patient-derived xenograft, tumor growth delay. The format is in vivo, NSG mice. The conditions noted are these: PDX CTG-0363 (NSCL); every seven days, six doses; median time to 1 cm^3 vs control. How it is done: as §1
For a further test, the system named is CTG-0382 colorectal PDX. As to the kind of experiment: Patient-derived xenograft, tumor growth delay. Type of test: in vivo, NSG mice. The conditions noted are these: PDX CTG-0382 (Colorectal); every seven days, six doses; median time to 1 cm^3 vs control. How it is done:
as §1

The test system of another test is CTG-0387 colorectal PDX. In words: Patient-derived xenograft, tumor growth delay. The format is in vivo, NSG mice. The conditions noted are these: PDX CTG-0387 (Colorectal); every seven days, six doses; median time to 1 cm^3 vs control. Here is the method: as §1
In another test the test system is CTG-0406 colorectal PDX. As to the kind of experiment: Patient-derived xenograft, tumor growth delay. Type of test: in vivo, NSG mice. Conditions: PDX CTG-0406 (Colorectal); every seven days, six doses; median time to 1 cm^3 vs control. Here is the method: as §1
In the next test the test system is CTG-0419 colorectal PDX. In words: Patient-derived xenograft, tumor growth delay. Type of test: in vivo, NSG mice. The conditions noted are these: PDX CTG-0419 (Colorectal); every seven days, six doses; median time to 1 cm^3 vs control. How it is done:
as §1

Another test deals with CTG-0440 colorectal PDX. In words: Patient-derived xenograft, tumor growth delay. The format is in vivo, NSG mice. The conditions noted are these: PDX CTG-0440 (Colorectal); every seven days, six doses; median time to 1 cm^3 vs control. How it is done:
as §1

The test system of another test is CTG-0652 colorectal PDX. As to the kind of experiment: Patient-derived xenograft, tumor growth delay. The format is in vivo, NSG mice. The conditions noted are these: PDX CTG-0652 (Colorectal); every seven days, six doses; median time to 1 cm^3 vs control. Here is the method:
as §1

Another test concerns CTG-0796 colorectal PDX. In words: Patient-derived xenograft, tumor growth delay. Conditions: PDX CTG-0796 (Colorectal); every seven days, six doses; median time to 1 cm^3 vs control. Type of test: in vivo, NSG mice. Here is the method: as §1

The text below walks through data of patent US10383948B2, “Anti-cMet antibody drug conjugates and methods for their use” (AbbVie Inc., priority 2016, dated 2019).

For “ABBV-399: ADC comprised of the cMet targeting antibody ABT-700 conjugated to MMAE through a valine citrulline (vc) linker”, the “Maximal Killing” value in [1] stood at 10%. Moreover, the “TGD (%) tumor growth delay” value with CTG-0062 colorectal PDX is 0%; in the test with CTG-0084 colorectal PDX, 0%; in the test with CTG-0117 colorectal PDX, 0%; with CTG-0159 NSCL PDX, 288%; in the test on CTG-0162 NSCL PDX, 88%; in the test on CTG-0164 NSCL PDX, 25%. Also, the “TGD (%) tumor growth delay” value in the test on CTG-0165 NSCL PDX is listed as 170%; in the test with CTG-0167 NSCL PDX, 0%; in the test on CTG-0170 NSCL PDX, 336%; with CTG-0176 NSCL PDX it was 71%; in the test with CTG-0178 NSCL PDX it was 0%; in the test on CTG-0358 colorectal PDX, 94%. For the same substance, the “TGD (%) tumor growth delay” value in the test with CTG-0363 NSCL PDX was determined as 0%; in the test with CTG-0382 colorectal PDX, 126%; in the test with CTG-0387 colorectal PDX it was 0%; with CTG-0406 colorectal PDX, 0%; in the test on CTG-0419 colorectal PDX, 54%; in the test on CTG-0440 colorectal PDX, 12%. The “TGD (%) tumor growth delay” value with CTG-0652 colorectal PDX is given as 350%; in the test with CTG-0796 colorectal PDX it was 78%.
